The subject of assay [1] is N-acetyl-5-methoxytryptamine receptors. Kind of assay: biological activity by classical tests (agonist/antagonist character). The protocol: (§1) All the substances were evaluted for their relative affinity and were tested for biological activity by using classical tests.
The target in assay [2] is N-acetyl-5-methoxytryptamine receptors. As to the kind of experiment: relative affinity for the specific N-acetyl-5-methoxytryptamine receptors. It is filed as binding. The following applies: association constant; SE printed in a separate column. The protocol:
as §1

Eleven compounds from patent publication EP0585206B1, “Tryptamines for treatment of circadian rhythm disorders” (I.F.L.O. S.a.s. di Giorgio e Aldo Laguzzi, priority 1992, dated 1994) can be followed below.

For the compound `COc1ccc2[nH]c(-c3ccccc3)c(CCNC(C)=O)c2c1` [Compound 4d], the Activity entry in assay [1] was “Antagonist”.
Still for that read-out and setting: the value for `COc1ccc2[nH]c(Br)c(CCNC(C)=O)c2c1` [Compound 4j, N-acetyl-2-bromo-5-methoxy tryptamine] was “Agonist”; that for `COc1ccc2[nH]c(C)c(CCNC(=O)C3CC3)c2c1` [Compound 4e] was “Agonist”; that for `COc1ccc2[nH]c(C)c(CCNC(C)=O)c2c1` [Compound 4a] was “Agonist”.
Still for that read-out and setting: in the case of `COc1ccc2[nH]cc(CCNC(C)=O)c2c1` [Melatonin, N-Acetyl-5-methoxytryptamine, reference compound] it was “Agonist”; in that of `COc1ccc2[nH]c(I)c(CCNC(C)=O)c2c1` [Compound 4k], “Agonist”.
On to `COc1ccc2[nH]c(-c3ccccc3)c(CCNC(=O)C3CC3)c2c1` [Compound 4g], for which the Activity entry in assay [1] is recorded as “Partial antagonist”. Moreover, the “Ka ± SE” value in assay [2] was 4.1e+09 L/mol.
As to `COc1ccc2[nH]c(I)c(CCNC(=O)C3CC3)c2c1` [Compound 4i], in assay [1], the Activity entry is given as “Agonist”.
Same read-out and setting: the value for `COc1ccc2[nH]c(C3CCCCC3)c(CCNC(C)=O)c2c1` [Compound 4c] was “Partial antagonist”; that for `COc1cc2c(CCNC(C)=O)c(Br)[nH]c2cc1Br` [Compound 4l] was “Agonist”.
For the compound `COc1ccc2[nH]c(Br)c(CCNC(=O)C3CC3)c2c1` [Compound 4h], the Activity entry in assay [1] is reported as “Agonsit”.
